{"source": "patent EP0974351A2", "about": "“Medicament for preventing and treating gastrointestinal damage” (JOUVEINAL, priority 1998, dated 2000)", "key": {"[1]": {"test_system": "Abdominal Response Induced by Rectal Distension", "assay": "Abdominal response induced by rectal distension in rats (electromyography)", "type": "in vivo, Male Wistar rats", "text": "The GABA analogs also have been evaluated for their ability to control and treat gastrointestinal disorders characterized as IBD and IBS. The assay utilized to evaluate the GABA analogs measures the effects of compound on lipopolysaccharide-induced delayed rectal allodynia in rats. Intraperitoneal (IP) injections of the endotoxin lipopolysaccharide (LPS) are known to induce long-lasting hyperalgesia in somatic pain models. The following assay was designed to evaluate the effect of IP injections of LPS on pain visceral threshold in an experimental model of rectal distension.\nMale Wistar rats weighing 250 to 350 g were surgically prepared for electromyography, according to a previously described technique. Rats were anesthetized by i.p. injection of acepromazine and ketamine (Imalgene 1000, Rhöne-Mérieux, Lyon, France) at doses of 0.6 and 120 mg/kg, respectively. […] Electrodes were exteriorized on the back of the neck and protected by a glass tube attached to the skin. Animals were individually housed in polypropylene cages and kept in a temperature-controlled room (21°C). They were allowed free access to water and food (UAR pellets, Epinay, France).\nElectromyographic recording began 5 days after surgery. The electrical activity of abdominal striated muscles was recorded with an electroencephalograph machine (Mini VIII, Alvar, Paris, France) using a short-time constant (0.03 sec) to remove low-frequency signals (<3 Hz) and a paper speed of 3.6 cm/minute.\nRats were placed in plastic tunnels (6 cm diameter; 25 cm length) where they could not move, escape or turn around, in order to prevent damage to the balloon. They are accustomized to this procedure for 3 or 4 days before rectal distension (RD) in order to minimize stress reaction during experiments. […] The balloon used for distension was an arterial embolectomy catheter (Fogarty, Edwards Laboratories, Inc., Santa Ana, USA). RD was performed by insertion of the balloon (2-mm diameter; 2-cm long) in the rectum, at 1 cm of the anus, the catheter being fixed at the tail. It was inflated progressively by step of 0.4 mL, from 0 to 1.6 mL, each step of inflation lasting 5 minutes. To detect possible leakage, the volume of water introduced in the balloon was checked by complete removal with a syringe at the end of the distension period.\nIn a first series of experiments, a group of 89 rats were submitted to gradual rectal distention. The animals were previously (30 minutes) treated by gabapentin at doses of 30 and 100 mg/kg IP or its vehicle ([…]).\nStatistical analysis of the number of abdominal contractions occurring during each 5-minute period during RD was performed by one-way ANOVA followed by Student's paired t-test. Values were expressed as the mean ± SEM, and differences were considered significant for p <0.05."}, "[2]": {"test_system": "gastric lesions caused by indomethacin", "assay": "Indomethacin-induced gastric lesions in rats (gabapentin pretreatment)", "type": "in vivo, Male Sprague-Dawley rats", "details": "for gastric lesion (square area of visible lesions): indomethacin alone 42.6 ± 5.2", "description": "Gabapentin was evaluated in animals to determine its ability to prevent gastric lesions otherwise caused by indomethacin.\nMale Sprague-Dawley rats weighing 240 to 250 g were fasted for 24 hours and allowed free access to water prior to experiment. All test drugs were given intragastrically. Rats were pretreated with different doses of gabapentin at doses of 40 and 60 mg. Thirty minutes later indomethacin (25 mg/kg) was administered. Another group of rats received 10 mg of gabapentin twice, 3 hours apart, followed by indomethacin administration. Three hours after indomethacin treatment, the rats were killed and gastric lesions were assessed. The severity of the lesions were determined by the measurement of the square area (mm^2) of visible lesions."}}}
{"smiles": "NCC1(CC(=O)O)CCCCC1", "note": "[Gabapentin, 1-(aminomethyl)-cyclohexane acetic acid]", "values": [{"measurement": "Number of abdominal contractions/5 minutes", "setting": "[1]; Gabapentin 30 mg/kg IP 30 min before, volume of distension 0.4mL, vehicle 4.4 ± 1.6, mean ± SEM", "value": "5.0 ± 2.1 abdominal contractions/5 minutes"}, {"measurement": "% of reduction vs vehicle", "setting": "[1]; Gabapentin 30 mg/kg IP, volume of distension 0.8 mL", "value": -45, "unit": "%"}, {"measurement": "Number of abdominal contractions/5 minutes", "setting": "[1]; Gabapentin 30 mg/kg IP, volume of distension 0.8 mL, vehicle 19.1 ± 2.8, p <0.01", "value": "10.6 ± 3.4 abdominal contractions/5 minutes"}, {"measurement": "% of reduction vs vehicle", "setting": "[1]; Gabapentin 30 mg/kg IP, volume of distension 1.2 mL", "value": -31.2, "unit": "%"}, {"measurement": "Number of abdominal contractions/5 minutes", "setting": "[1]; Gabapentin 30 mg/kg IP, volume of distension 1.2 mL, vehicle 23.4 ± 2.6, p <0.05", "value": "16.1 ± 2.3 abdominal contractions/5 minutes"}, {"measurement": "Number of abdominal contractions/5 minutes", "setting": "[1]; Gabapentin 100 mg/kg IP, volume of distension 0.4mL, vehicle 3.9 ± 1.8", "value": "2.0 ± 1.4 abdominal contractions/5 minutes"}, {"measurement": "% of reduction vs vehicle", "setting": "[1]; Gabapentin 100 mg/kg IP, volume of distension 0.8 mL", "value": -61.2, "unit": "%"}, {"measurement": "Number of abdominal contractions/5 minutes", "setting": "[1]; Gabapentin 100 mg/kg IP, volume of distension 0.8 mL, vehicle 19.6 ± 2.3, p <0.01", "value": "7.6 ± 3.4 abdominal contractions/5 minutes"}, {"measurement": "Number of abdominal contractions/5 minutes", "setting": "[1]; Gabapentin 100 mg/kg IP, volume of distension 1.2 mL, vehicle 19.1 ± 2.3", "value": "16.7 ± 2.9 abdominal contractions/5 minutes"}, {"measurement": "gastric lesion (square area of visible lesions)", "setting": "[2]; gabapentin 10 mg twice, 3 hours apart, followed by indomethacin 25 mg/kg", "value": "4.2 ± 0.39", "unit": "mm^2"}, {"measurement": "gastric lesion (square area of visible lesions)", "setting": "[2]; gabapentin 40 mg intragastrically 30 min before indomethacin 25 mg/kg, assessed 3 hours after indomethacin, mean ± SEM", "value": "22.3 ± 2.8", "unit": "mm^2"}, {"measurement": "gastric lesion (square area of visible lesions)", "setting": "[2]; gabapentin 60 mg/kg (so in the source) intragastrically 30 min before indomethacin 25 mg/kg", "value": "16.5 ± 2.2", "unit": "mm^2"}, {"measurement": "gastric bleeding", "setting": "[2]; gabapentin pretreatment before indomethacin 25 mg/kg", "value": "dramatically reduced"}]}
